US20030228373A1, “Composition including a triamine and a biocide and a method for inhibiting the growth of microorganisms with the same” (Lonza Inc., priority 2002, published 2003)

Test system: microorganisms in the process water
Experiment: Microbial count reduction in paper mill process water (3 h contact at 37° C., TGE agar plate count); synergism by the Kull method
Type: cell-based
Details: for Colony forming units per milliliter of sample (CFU/ml) after overnight incubation / Logarithmic Growth Reduction relative to the Control Experiment [log (CFU/ml of control plate) − log (CFU/ml of experimental plate)]: process water pH 7.0, 3 hours at 37° C.; for concentration alone required to yield a thousand fold reduction in the microorganism count of the process water (Qa, Qb): substance alone
Protocol: Samples of process water having a pH of 7.0 obtained from a paper mill were supplemented with Lonzabac® 12.100 and Barquat® MB-80 at the concentrations indicated in Table 1 below. Barquat® MB-80 is an 80% aqueous solution of N-(C12-C16 alkyl)-N-benzyl-N,N-dimethylammonium chloride available from Lonza Inc. of Fair Lawn, N.J. Lonzabac® 12.100 is a 100% N,N-bis(3-aminopropyl)-dodecylamine liquid available from Lonza Inc. The samples were immediately mixed and incubated for 3 hours at 37° C. with agitation in an orbital shaker. After 3 hours, tryptone glucose extract (TGE) agar plates were inoculated with each sample and grown overnight at 37° C. The number of colonies on each plate was then counted.
This experiment was repeated with a sample of process water that was not treated with Lonzabac® 12.100 or Barquat® MB-80 as a control.
Synergism for the solutions in Table 1 against the microorganisms in the process water was calculated by the methods described in C. E. Kull et al., “Mixtures of Quaternary Ammonium Compounds and Long-chain Fatty Acids as Antifungal Agents”, Applied Microbiology, 9:538-541 (1961). The synergism value (QA/Qa+QB/Qb) was determined. QA is the concentration of Lonzabac® 12.100 (in ppm) in a Lonzabac® 12.100/Barquat® MB-80 mixture, which yielded a thousand fold reduction in the microorganism count of the process water. Qa is the concentration of Lonzabac® 12.100 alone (in ppm) required to yield a thousand fold reduction in the microorganism count of the process water. QB is the concentration of Barquat® MB-80 (in ppm) in a Lonzabac® 12.100/Barquat® MB-80 mixture, which yielded a thousand fold reduction in the microorganism count of the process water. Qb is the concentration of Barquat® MB-80 alone (in ppm) required to yield a thousand fold reduction in the microorganism count of the process water.
The procedure in Example 1 was repeated substituting peracetic acid for Barquat® MB-80 with the solutions in Table 2 below.

Row | Structure (SMILES) | Colony forming units per milliliter of sample (CFU/ml) after overnight incubation (Lonzabac 12.100 15 ppm alone) | Logarithmic Growth Reduction relative to the Control Experiment [log (CFU/ml of control plate) − log (CFU/ml of experimental plate)] (Lonzabac 12.100 15 ppm alone) | Colony forming units per milliliter of sample (CFU/ml) after overnight incubation (Lonzabac 12.100 30 ppm alone) | Logarithmic Growth Reduction relative to the Control Experiment [log (CFU/ml of control plate) − log (CFU/ml of experimental plate)] (Lonzabac 12.100 30 ppm alone) | Colony forming units per milliliter of sample (CFU/ml) after overnight incubation (Lonzabac 12.100 60 ppm alone) | Logarithmic Growth Reduction relative to the Control Experiment [log (CFU/ml of control plate) − log (CFU/ml of experimental plate)] (Lonzabac 12.100 60 ppm alone) | Colony forming units per milliliter of sample (CFU/ml) after overnight incubation (Lonzabac 12.100 90 ppm alone) | Logarithmic Growth Reduction relative to the Control Experiment [log (CFU/ml of control plate) − log (CFU/ml of experimental plate)] (Lonzabac 12.100 90 ppm alone) | concentration alone required to yield a thousand fold reduction in the microorganism count of the process water (Qa, Qb) | Colony forming units per milliliter of sample (CFU/ml) after overnight incubation (Peracetic Acid 20 ppm alone) | Logarithmic Growth Reduction relative to the Control Experiment [log (CFU/ml of control plate) − log (CFU/ml of experimental plate)] (Peracetic Acid 20 ppm alone) | Colony forming units per milliliter of sample (CFU/ml) after overnight incubation (Peracetic Acid 50 ppm alone) | Logarithmic Growth Reduction relative to the Control Experiment [log (CFU/ml of control plate) − log (CFU/ml of experimental plate)] (Peracetic Acid 50 ppm alone)
1 | CCCCCCCCCCCCN(CCCN)CCCN [Lonzabac ® 12.100, N,N-bis(3-aminopropyl)-dodecylamine] | 6.55 × 10^7 CFU/ml | 0.7 | 6.40 × 10^6 CFU/ml | 1.7 | 3.25 × 10^5 CFU/ml | 3.0 | 1.00 × 10^5 CFU/ml | 3.5 | 60 ppm |  |  |  | 
2 | CC(=O)OO [Peracetic Acid, peracetic acid, reference compound] |  |  |  |  |  |  |  |  | 50 ppm | 1.43 × 10^7 CFU/ml | 1.3 | 1.00 × 10^5 CFU/ml | 3.2
